Results from patent publication US10912760B1, “Method of inhibiting cancer metastasis” (Chung Shan Medical University, priority 2019, dated 2021).

Key:
[1] = system: colon cancer cells (DLD-1, SW480 and SW620); assay: Soft agar colony formation assay; assay type: cell-based, human; conditions: 1 week
Procedure: FIG. 1E: Effect of Camphorataimide B on colony formation of colon cancer cells. The three colon cancer cells were pretreated with indicated concentration of Camphorataimide B for 24 hours, seeded on soft agar plates, and then incubated for one week. After the treatments, the number of colonies was quantitated. Quantitative results were presented as means±SD. Three independent experiments were performed for statistical analysis. * and ** represented P<0.01 and P<0.001 as compared to control, respectively.
Cells suspended in agarose medium (10% FBS and 0.3 agarose in medium) containing serial concentrations of Camphorataimide Bwere plated onto 6-well plate which was pre-coated with a layer of solidified agarose (10% FBS and 0.6% agarose in medium), and then incubated at 37° C. in a humidified atmosphere containing 5% CO2 for 1 week. At the end of incubation, cell colonies were fixed, stained with crystal violet, and then photographed using Nikon Eclipse TE2000-U microscope equipped with a Nikon Digital Camera DXM1200 and those colonies with size greater than 0.1 mm were counted.

[2] = system: colon cancer cells (DLD-1, SW480 and SW620); assay: Cell adhesion assay; assay type: cell-based, human; conditions: pretreated 24 hours, Matrigel coated plates, 8 hours
Procedure: FIG. 1C: Effect of Camphorataimide B on adhesion of colon cancer cells. The three colon cancer cells were pretreated with the indicated concentrations of Camphorataimide B for 24 hours, seeded on a matrix coated monolayer dish, and then incubated for 8 hours. After washing with PBS, the attached cells were photographed and quantitated.
FIG. 1D: Quantitation of effect of Camphorataimide B on adhesion of colon cancer cells. Quantitative results were presented as means±SD. Three independent experiments were performed for statistical analysis. * and ** represented P<0.01 and P<0.001 as compared to control, respectively.
Cells were incubated with serial concentration of Camphorataimide B in a complete medium for 24 hours, transferred in to 12-well Matrigel coated plates (10^5 cells per well), and incubated at 37° C. for 8 hours. After the incubation, non-adherent cells were removed by PBS washing and the attached cells were photographed and quantitated using a cell counter.

[3] = system: colon cancer cells (DLD-1, SW480 and SW620); assay: Cell migration assay (transwell); assay type: cell-based, human
Procedure: (§1) FIG. 1A: Effect of Camphorataimide B on migration and invasion of colon cancer cells. For migration assay, three colon cancer cells (DLD-1, SW480 and SW620) were pretreated with the indicated concentrations of Camphoratamide B for 24 hours, seeded onto transwell inserts, and then incubated for 12 hours. For invasion assay, the three colon cancer cells were pretreated with the indicated concentrations of Camphorataimide B for 24 hours, seeded onto Matrigel coated transwell inserts, and then incubated for 16 hours. After the treatments, numbers of cell on the lower surface membrane were stained, photographed and counted for quantitation of migrated and invaded cells.
(§2) FIG. 1B: Quantitation of effect of Camphorataimide B on migration and invasion of colon cancer cells. Quantitative results were presented as means±SD. Three independent experiments were performed for statistical analysis. * and ** represented P<0.01 and P<0.001 as compared to control, respectively.
(§3) Cells were pretreated with Camphorataimide B for 24 hours, harvested and then seeded on to 24-well cell culture inserts (8 μm pore size, Millipore). […] The stained cells were photographed and quantified form five random fields under microscopic examination. […] Cells invaded into the lower surface of the insert were quantitated as described earlier.

[4] = system: F-actin in colon cancer cells (DLD-1, SW480 and SW620); assay: Immunofluorescence (phalloidin) staining of F-actin cytoskeleton; assay type: cell-based, human; conditions: confocal microscope, compared to control
Procedure: FIG. 1F: Effect of Camphorataimide B on cytoskeleton structure of colon cancer cells. The treated cells were seeded on a matrix-coated dish, and then F-actin (red) was detected by immunofluorescence staining, while the nuclei (blue) were detected by DAPI staining. Fluorescent images were acquired by using confocal microscopy. Scale bars, […].
Adherent cells were fixed on the glass slides using 4% ice-cold formaldehyde and reacted with blocking buffer and 0.5% Triton X-100 for 1 hour at room temperature. The reacted cells were incubated with primary antibodies overnight at 4° C. The bound primary antibodies were detected using Alexa Fluor-labeled secondary antibody (Jackson ImmunoResearch Laboratories, West Grove, Pa., USA). Alexa Fluor-conjugated phalloidin (Cell Signaling) was used for detection of polymerized F-actin microfilaments. Fluorescence image was acquired by using a laser scanning confocal microscope system (Zeiss 510 meta, Zeiss, Oberkochen, Germany).

breast cancer cells = conditions: reported; cited from earlier work
[5] = system: colon cancer cells (DLD-1, SW480 and SW620); assay: Cell invasion assay (Matrigel coated transwell); assay type: cell-based, human
Procedure: as §1, §2, §3

DLD-1 cells = assay: Ex vivo xenograft mice model: pretreated DLD-1 cells injected into spleen and peritoneal site; assay type: in vivo, Balb/c nude mice
Procedure: Luciferase expressing DLD-1 cells were pretreated with or without 30 μM Camphorataimide B for 24 hours, and then injected into the abdomen and spleen of Balb/c nude mice (five mice for each group), 35 days after implantation, the representative ex vivo images for liver and abdominal metastasis burden in xenografted animals were monitored using bioluminescent imaging (BLI).
FIG. 2B: Quantitation of results of FIG. 2A. Luciferase expressing DLD-1 cells were pretreated with or without 30 μM Camphorataimide B for 24 hours, and then injected into the abdomen and spleen of Balb/c nude mice. After 35 days implantation, the mice were photographed and tumor metastatic capability was analyzed. * and ** represented P<0.01 and P<0.001 as compared to untreated group, respectively.
FIG. 2C: Camphorataimide B suppressed hepatic and abdominal metastasis of DLD-1 cells in ex vivo xenograft mice model. DLD-1 cells were pretreated with or without 30 μM Camphorataimide B for 24 hours, and then spleeny and intraperitoneally injected into Balb/c mice, respectively. After 35 days, the mice were sacrificed and the tissues were obtained and photographed.
FIG. 2D: Quantitation of results of FIG. 2C. DLD-1 cells were pretreated with or without 30 μM Camphorataimide B for 24 hours, and then spleeny and intraperitoneally injected into Balb/c mice, respectively. After 35 days, the mice were sacrificed and photographed. Total weight of tumor foci from the metastatic tissues were presented and quantitated. *, P<0.01 and P<0.001 between the indicated groups.
FIG. 2E: Camphorataimide B suppressed metastasis in ex vivo xenograft mice model. […]
(§4) Male Balb/c nude mice aged four weeks were purchased from National Laboratory Animal Center of Taiwan (Taipei City, Taiwan) and maintained under supervision of the Institutional Animal Care and Use Committee at Chung Shan Medical University. […] The liver metastasis burden was monitored weekly by bioluminescence imaging (BLI). […]

[6] = system: Luciferase expressing DLD-1 cells; assay: In vivo xenograft mice model: oral treatment after Luc-DLD-1 injection; set-up: species or system Balb/c nude mice
Procedure: Luciferase expressing DLD-1 cells were suspended in phosphate buffered saline and injected into the spleen and peritoneal site of 5-week-old male Balb/c nude mice, respectively. After one week, the mice were orally administrated with 10 or 20 mg/kg Camphorataimide B or saline vehicle for one month (five mice for each group). IVIS luciferase in vivo images of liver and abdominal metastasis burden were monitored using bioluminescent imaging (BLI). Data represented mean±SD. * and ** represented P<0.01 and P<0.001 between the indicated groups, respectively.
FIG. 2G: Camphorataimide B suppressed hepatic and abdominal metastasis of DLD-1 cells in in vivo xenograft mice model. Luciferase expressing DLD-1 cells were suspended in phosphate buffered saline and injected into the spleen and peritoneal site of Balb/c nude mice, respectively. After one week, the mice were orally administrated with 10 or 20 mg/kg Camphorataimide B or saline vehicle (five mice for each group). After one month, the mice were sacrificed and the tissues were obtained and photographed.
FIG. 2H: Quantitation of results of FIG. 2G. Luciferase expressing DLD-1 cells were suspended in phosphate buffered saline and injected into the spleen and peritoneal site of Balb/c nude mice, respectively. After one week, the mice were orally administrated with 10 or 20 mg/kg Camphorataimide B or saline vehicle (five mice for each group). After 35 days, the mice were sacrificed and photographed. Total weight of tumor foci from the metastatic tissues were presented and quantitated. * and ** represented P<0.01 and P<0.001 between the indicated groups, respectively.
as §4

[7] = 20 and 30 μM, P<0.01 as compared to control

CC(C)=CCOc1ccc(C2=C(CC(C)C)C(=O)NC2=O)cc1 [Camphorataimide B]
colony numbers [1]: significantly reduced
adherent cell numbers [2]: significantly reduced
inhibition of migration [3, 7]: significant
migration of colon cancer cells ([3]; pretreated 24 hours, indicated concentrations, transwell 12 hours): dose-dependently inhibited
regular architecture and expression level of F-actin [4]: disrupted and decreased
tumor growth in breast cancer cells (breast cancer cells): can inhibit tumor growth
inhibition of invasiveness [5, 7]: significant
invasiveness of colon cancer cells ([5]; pretreated 24 hours, indicated concentrations, Matrigel transwell 16 hours): dose-dependently inhibited
attachment to colon tissue, number and size of tumors (DLD-1 cells; DLD-1 cells pretreated with 30 μM for 24 hours, after 35 days): rarely attached to colon tissue and formed fewer number and smaller size of tumors
hepatic and abdominal metastatic lesion (hematoxylin and eosin staining) (DLD-1 cells; DLD-1 cells pretreated with 30 μM for 24 hours, day 35, compared to untreated cells): significantly diminished
liver and abdominal metastasis burden (bioluminescent imaging) (DLD-1 cells; Luc-DLD-1 cells pretreated with 30 μM for 24 hours, 35 days after implantation): suppressed liver and abdominal metastasis
tumor size by bioluminescent imaging ([6]; oral 10 and 20 mg/kg every three days for 1 month): smaller tumors than tumor group
tumor growth and metastatic ability ([6]; oral 10 and 20 mg/kg every three days for 1 month, versus untreated tumors): grew slowly and less metastatic ability than untreated tumors
increased gross weight of tumor ([6]; oral 10 and 20 mg/kg every three days, after 35 days): notably inhibited
